# According to patent US11046716B2, “Beta-lactamase inhibitors” (priority 2015, dated 2021):
# Like-named read-outs stand apart in the source and are kept apart here.
# Columns and labels:
# [1] = tested on: K. pneumoniae expressing the class A carbapenemase KPC-2 and the class B carbapenemase VIM-4; assay: Broth microdilution MIC assay with meropenem, K. pneumoniae KPC-2 and VIM-4; format: cell-based; conditions: for MIC (μg/mL) of Exemplary Compounds in presence of fixed β-lactams: K. p. A-1797 KPC-2 VIM-4: Fixed Mero (meropenem) 4 μg/mL
# From the text: (§1) To determine the ability of test compounds to potentiate the inhibition of the growth of bacterial strains that produce beta-lactamase enzymes in the presence of a β-lactam antibiotic, classic cell based broth microdilution MIC assays were employed. Six bacteria strains producing beta-lactamase enzymes were used: E. coli expressing the Class A Extended Spectrum Beta-Lactamase (ESBL) CTX-M-15, E. cloacae expressing the Class C P99, K. pneumoniae expressing the Class A carbapenemase KPC-2, P. aeruginosa expressing the Class B carbapenemase VIM-2, K. pneumoniae expressing the class A carbapenemase KPC-2 and the class B carbapenemase VIM-4, and K. pneumoniae producing the Class D carbapenemase OXA-48. The assay was conducted in Cation Adjusted Mueller Hinton Broth (CAMHB, BD #212322, BD Diagnostic Systems, Sparks, Md.). Bacteria strains were grown for 3-5 hours in CAMBH broth. Test compounds (Examples 1-94) were added to a microtiter plate in 2-fold serial dilutions in CAMHB in a final concentration range of 16 μg/mL to 0.125 μg/ml. An overlay of CAMHB containing a Beta-lactam was added to the compounds at a final static concentration of 4 μg/ml. […] In addition to the titration of test compounds the MICs of a panel of control beta-lactams is also tested to ensure the strains are behaving consistently from test to test. Once the test compound and antibiotics are added the plates can be inoculated according to CLSI broth microdilution method. After inoculation the plates are incubated for 16-20 hours at 37° C. then the Minimal Inhibitory Concentration (MIC) of the test compound is determined visually.
# (§2) Using the methodology described above, examples of the current invention were evaluated for their ability to inhibit the growth of β-lactamase-producing bacteria in the presence of a β-lactam antibiotic.
# [2] = tested on: E. coli expressing the Class A Extended Spectrum Beta-Lactamase (ESBL) CTX-M-15; assay: Broth microdilution MIC assay with ceftazidime, E. coli CTX-M-15; format: cell-based; conditions: Fixed CAZ (ceftazidime) 4 μg/mL; E. coli ESBL4 CTX-M-15
# From the text: as §1, §2
# SHV-5 = target: T1, SHV-5 (Klebsiella pneumoniae, UniProt P0A3M1); assay: β-lactamase enzyme inhibition assay, SHV-5 (cefotaxime substrate); format: biochemical
# T1 construct: made in house; host or cells: E. coli BL21(DE3)
# Method: (§3) For SHV-5, Kpc-2, p99AmpC and OXA-1 β-lactamases, E. coli BL21(DE3) bacterial cells carrying expression plasmids (expressed as native untagged proteins) for the individual β-lactamases were grown in 1 L of Superbroth (Teknova Inc. Hollister, Calif.) supplemented with 100 μg/ml kanamycin selection and 1×5052 (0.5% glycerol, 0.05% glucose and 0.2% α-lactose) at 35° C. for 18-20 hours. Cells were harvested by centrifugation (4,000×g, 4° C., 20 min), resuspended in 50 ml of 10 mM HEPES pH 7.5 ( 1/20 of the initial volume). The cells were lysed by sonication (5 pulses of 45 seconds) at 45 W on ice. The lysates were clarified by centrifugation at 10,000×g for 40 minutes at 4° C. Samples were diluted 5-fold in 50 mM sodium acetate pH 5.0, stored overnight at 4° C., after which they were centrifuged at 10,000×g for 30 minutes to clarify, and filtered through 0.45 μm filters. The samples were loaded onto a 5 ml Capto S sepharose cation exchange column (GE Healthcare) pre-equilibrated with 50 mM sodium acetate pH 5.0. The column was washed with 5 column volumes of 50 mM sodium acetate pH 5.0 to wash out unbound protein and a linear gradient of NaCl (0 to 500 mM) was used to elute the protein (over 16 CV) from the column. Fractions were assayed for β-lactamase activity using Centa (Calbiochem, Gibbstown, N.J.) or Nitrocefin (EMD Millipore chemicals, Darmstadt, Germany) as a reporter β-lactamase substrate for activity in the isolated fractions. Active fractions were pooled, concentrated and further purified by gel filtration chromatography on a Superdex 75 prep grade gel filtration column (GE Healthcare, Piscataway, N.J.) pre-equilibrated in 50 mM Hepes pH 7.5, 150 mM NaCl. Active fractions were pooled concentrated, quantitated by BCA protein determination (Thermo Scientific, Rockford, Ill.), dialyzed into PBS and frozen at −80° C. in 20% glycerol until use.
# (§4) An equal volume of diluted enzyme stock was added, and the plates were incubated at 37° C. for 15 min. Nitrocefin was used as substrate for p99 AmpC, VIM-2 and OXA-1 and dispensed into each well at a final concentration of 100 μM. Absorbance at 486 nm was immediately monitored for 10 min using a Biotek Powerwave XS2 microplate spectrophotometer using the GEN5 software package (Biotek Instruments, Winooski Vt.). In an analogous fashion, imipenem was used as substrate for Kpc-2 and Cefotaxime was used for SHV-5, while changes in absorbance upon hydrolysis of the β-lactam ring were monitored at 300 nm and 260 nm respectively in UV-transparent 96-well microtiter assay plates. Maximum rates of hydrolysis were compared to those in control wells (without inhibitors), and percentages of enzyme inhibition were calculated for each concentration of inhibitor. The concentration of inhibitor needed to reduce the initial rate of hydrolysis of substrate by 50% (IC50) was calculated as the residual activity of β-lactamase at 486 nm using GraFit version 7 kinetics software package (Erithacus Software, Surrey, UK).
# (§5) Using the methodology described above, examples of the current invention were evaluated for their ability to inhibit β-lactamase enzymes from all four Ambler classifications (A through D). […] NT=Not tested.
# VIM-2 = target: T2, VIM-2 (Escherichia coli, UniProt Q5U7L7); assay: β-lactamase enzyme inhibition assay, VIM-2 (nitrocefin substrate); format: biochemical
# T2 construct: made in house; host or cells: E. coli BL21(DE3)
# Method: For Vim-2 metallo β-lactamase, the procedure was identical with the following exceptions, first the protein was not pH adjusted to pH 5 with 50 mM sodium acetate, second, the chromatography step was changed to a 5 ml Q sepharose anion exchange column pre-equilibrated with 50 mM Hepes pH 7.5, and elution of the protein was achieved by a linear gradient of NaCl (0-600 mM). Finally, the VIM-2 purification required a second run (3rd step) on the Q sepharose anion exchange column to achieve acceptable purity (>90%).
# as §4, §5
# [3] = tested on: K. pneumoniae producing the Class D carbapenemase OXA-48; assay: Broth microdilution MIC assay with meropenem, K. pneumoniae OXA-48; format: cell-based; conditions: for MIC (μg/mL) of Exemplary Compounds in presence of fixed β-lactams: K. p. 11978 OXA-48: Fixed Mero (meropenem) 4 μg/mL
# From the text: as §1, §2
# AmpC = target: T3, AmpC (Enterobacter cloacae, UniProt P05364); assay: β-lactamase enzyme inhibition assay, p99 AmpC (nitrocefin substrate); format: biochemical
# T3 construct: made in house; host or cells: E. coli BL21(DE3)
# Method: as §3, §4, §5
# OXA-48 = OXA-48 (UniProt Q6XEC0); assay: β-lactamase enzyme inhibition assay, Class D oxacillinase; format: biochemical; conditions: read-out: OXA-48
# KPC-2 = target: T4, KPC-2 (Klebsiella pneumoniae, UniProt Q9F663); assay: β-lactamase enzyme inhibition assay, KPC-2 (imipenem substrate); format: biochemical
# T4 construct: made in house; host or cells: E. coli BL21(DE3)
# Method: as §3, §4, §5
# [4] = tested on: K. pneumoniae expressing the Class A carbapenemase KPC-2; assay: Broth microdilution MIC assay with meropenem, K. pneumoniae KPC-2; format: cell-based; conditions: for MIC (μg/mL) of Exemplary Compounds in presence of fixed β-lactams: K. p. 156319 KPC-3: Fixed Mero (meropenem) 4 μg/mL
# From the text: as §1, §2
# [5] = tested on: P. aeruginosa expressing the Class B carbapenemase VIM-2; assay: Broth microdilution MIC assay with meropenem, P. aeruginosa VIM-2; format: cell-based; conditions: for MIC (μg/mL) of Exemplary Compounds in presence of fixed β-lactams: P. aerug. 2775 VIM-2: Fixed Mero (meropenem) 4 μg/mL
# From the text: as §1, §2
# [6] = Class B, nitrocefin substrate, 486 nm, read-out: VIM-2
# [7] = Class A, imipenem substrate, 300 nm, read-out: KPC-2
# [8] = Klebsiella pneumoniae, read-out: MIC alone
# T3 sequence (P05364 21-381): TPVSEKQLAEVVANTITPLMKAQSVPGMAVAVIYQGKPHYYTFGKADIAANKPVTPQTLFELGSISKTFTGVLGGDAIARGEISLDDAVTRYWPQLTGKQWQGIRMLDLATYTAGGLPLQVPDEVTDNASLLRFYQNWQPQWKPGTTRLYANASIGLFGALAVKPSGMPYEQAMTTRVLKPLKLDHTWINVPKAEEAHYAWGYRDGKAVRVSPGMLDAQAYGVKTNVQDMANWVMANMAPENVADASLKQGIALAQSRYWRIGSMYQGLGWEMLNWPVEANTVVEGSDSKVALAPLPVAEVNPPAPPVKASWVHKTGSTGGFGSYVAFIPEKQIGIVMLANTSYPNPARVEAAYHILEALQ
# T4 sequence (Q9F663 25-293, looked up): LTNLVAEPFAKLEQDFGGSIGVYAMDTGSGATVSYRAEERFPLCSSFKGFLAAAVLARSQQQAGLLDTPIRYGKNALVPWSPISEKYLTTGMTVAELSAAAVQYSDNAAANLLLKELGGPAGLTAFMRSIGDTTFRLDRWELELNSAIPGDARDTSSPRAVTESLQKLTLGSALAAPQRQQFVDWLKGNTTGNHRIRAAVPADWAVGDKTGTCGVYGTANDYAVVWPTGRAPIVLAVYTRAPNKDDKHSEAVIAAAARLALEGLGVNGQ
# T1 sequence (P0A3M1 22-286): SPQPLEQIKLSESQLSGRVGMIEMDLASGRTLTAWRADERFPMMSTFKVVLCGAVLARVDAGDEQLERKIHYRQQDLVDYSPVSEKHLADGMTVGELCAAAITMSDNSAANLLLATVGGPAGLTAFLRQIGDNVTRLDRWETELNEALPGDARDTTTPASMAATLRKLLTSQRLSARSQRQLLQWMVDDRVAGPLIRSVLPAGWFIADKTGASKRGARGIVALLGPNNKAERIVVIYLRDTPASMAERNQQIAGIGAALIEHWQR
SMILES,MIC (μg/mL) of Exemplary Compounds in presence of fixed β-lactams: K. p. A-1797 KPC-2 VIM-4 [1],MIC (μg/mL) of Exemplary Compounds in presence of fixed β-lactams: E. coli ESBL4 CTX-M-15 [2],IC50 (SHV-5),IC50 (VIM-2; [6]),MIC (μg/mL) of Exemplary Compounds in presence of fixed β-lactams: K. p. 11978 OXA-48 [3],IC50 (AmpC),IC50 (OXA-48),IC50 (KPC-2; [7]),MIC (μg/mL) of Exemplary Compounds in presence of fixed β-lactams: K. p. 156319 KPC-3 [4],MIC (μg/mL) of Exemplary Compounds in presence of fixed β-lactams: P. aerug. 2775 VIM-2 [5],IC50 (VIM-2),IC50 (KPC-2),"MIC [1, 8]","MIC [3, 8]","MIC [4, 8]","MIC ([5]; Pseudomonas aeruginosa, read-out: MIC alone)"
"O=C(Cn1cc(CCO)nn1)N[C@H]1Cc2cccc(C(=O)O)c2OB1O [Example 5, (R)-2-hydroxy-3-(2-(4-(2-hydroxyethyl)-11,2,3-triazol-1-yl)acetamido)-3,4-dihydro-2H-benzo[e][1,2]oxaborinine-8-carboxylic acid]",B (B represents an MIC between 1 and 16 μg/mL inclusive),C (C represents an MIC of <1 μg/mL),< 100 nM,10000 to 100000 nM,B (B represents an MIC between 1 and 16 μg/mL inclusive),< 100 nM,100 to 1000 nM,< 100 nM,B (B represents an MIC between 1 and 16 μg/mL inclusive),B (B represents an MIC between 1 and 16 μg/mL inclusive),,,,,,
"NCCc1cn(CC(=O)N[C@H]2Cc3cccc(C(=O)O)c3OB2O)nn1 [Example 6, (R)-3-(2-(4-(2-aminoethyl)-1H-1,2,3-triazol-1-yl)acetamido)-2-hydroxy-3,4-dihydro-2H-benzo[e][1,2]oxaborinine-8-carboxylic acid]",B (B represents an MIC between 1 and 16 μg/mL inclusive),C (C represents an MIC of <1 μg/mL),100 to 1000 nM,1000 to 10000 nM,B (B represents an MIC between 1 and 16 μg/mL inclusive),< 100 nM,1000 to 10000 nM,< 100 nM,C (C represents an MIC of <1 μg/mL),C (C represents an MIC of <1 μg/mL),,,,,,
"C[Si](C)(C)c1cn(CC(=O)N[C@H]2Cc3cccc(C(=O)O)c3OB2O)nn1 [Example 9, (R)-2-hydroxy-3-(2-(4-(trimethylsilyl)-1H-1,2,3-triazol-1-yl)acetamido)-3,4-dihydro-2H-benzo[e][1,2]oxaborinine-8-carboxylic acid]",A (A represents an MIC>16 μg/mL),B (B represents an MIC between 1 and 16 μg/mL inclusive),< 100 nM,,A (A represents an MIC>16 μg/mL),< 100 nM,100 to 1000 nM,,A (A represents an MIC>16 μg/mL),,1000 to 10000 nM,< 100 nM,,,,
"CCOC(=O)c1nnn(CC(=O)N[C@H]2Cc3cccc(C(=O)O)c3OB2O)c1C(=O)OCC [Example 11, (R)-3-(2-(4,5-bis(ethoxycarbonyl)-1H-1,2,3-triazol-1-yl)acetamido)-2-hydroxy-3,4-dihydro-2H-benzo[e][1,2]oxaborinine-8-carboxylic acid]",B (B represents an MIC between 1 and 16 μg/mL inclusive),B (B represents an MIC between 1 and 16 μg/mL inclusive),< 100 nM,1000 to 10000 nM,A (A represents an MIC>16 μg/mL),< 100 nM,< 100 nM,< 100 nM,B (B represents an MIC between 1 and 16 μg/mL inclusive),,,,,,,
"NCC#Cc1c(CN)nnn1CC(=O)N[C@H]1Cc2cccc(C(=O)O)c2OB1O [Example 109, (R)-3-(2-(4-(aminomethyl)-5-(3-aminoprop-1-yn-1-yl)-1H-1,2,3-triazol-1-yl)acetamido)-2-hydroxy-3,4-dihydro-2H-benzo[e][1,2]oxaborinine-8-carboxylic acid]",C (C represents an MIC of <1 μg/mL),C (C represents an MIC of <1 μg/mL),100 to 1000 nM,< 100 nM,B (B represents an MIC between 1 and 16 μg/mL inclusive),100 to 1000 nM,< 100 nM,100 to 1000 nM,B (B represents an MIC between 1 and 16 μg/mL inclusive),C (C represents an MIC of <1 μg/mL),,,,,,
"C[C@@H](O)[C@H]1C(=O)N2C(C(=O)O)=C(S[C@@H]3CN[C@H](C(=O)N(C)C)C3)[C@H](C)[C@H]12 [Meropenem, meropenem, reference compound]",,,,,,,,,,,,,64 µg/mL,128 µg/mL,> 128 µg/mL,16 µg/mL
